From patent US20250375540A1, “FIBROBLAST ACTIVATION PROTEIN TARGETING PRECURSOR AND RADIOTRACER” (ITM ONCOLOGICS GMBH, priority 2022, published 2025)

Legend:
[1] = target: T1, FAP (Homo sapiens, UniProt Q12884); experiment: Affinity to FAP (IC50); assay type: biochemical; details: for affinity to FAP, in words: compared with reference (F) and gold standard (G); for selectivity for FAP over PREP, in words: relative to (G) UAMC1110; for S = PREP IC50/FAP IC50: selectivity FAP over PREP; for SF = S relative to UAMC1110: selectivity factor relative to UAMC1110
T1 sequence (Q12884 1-760): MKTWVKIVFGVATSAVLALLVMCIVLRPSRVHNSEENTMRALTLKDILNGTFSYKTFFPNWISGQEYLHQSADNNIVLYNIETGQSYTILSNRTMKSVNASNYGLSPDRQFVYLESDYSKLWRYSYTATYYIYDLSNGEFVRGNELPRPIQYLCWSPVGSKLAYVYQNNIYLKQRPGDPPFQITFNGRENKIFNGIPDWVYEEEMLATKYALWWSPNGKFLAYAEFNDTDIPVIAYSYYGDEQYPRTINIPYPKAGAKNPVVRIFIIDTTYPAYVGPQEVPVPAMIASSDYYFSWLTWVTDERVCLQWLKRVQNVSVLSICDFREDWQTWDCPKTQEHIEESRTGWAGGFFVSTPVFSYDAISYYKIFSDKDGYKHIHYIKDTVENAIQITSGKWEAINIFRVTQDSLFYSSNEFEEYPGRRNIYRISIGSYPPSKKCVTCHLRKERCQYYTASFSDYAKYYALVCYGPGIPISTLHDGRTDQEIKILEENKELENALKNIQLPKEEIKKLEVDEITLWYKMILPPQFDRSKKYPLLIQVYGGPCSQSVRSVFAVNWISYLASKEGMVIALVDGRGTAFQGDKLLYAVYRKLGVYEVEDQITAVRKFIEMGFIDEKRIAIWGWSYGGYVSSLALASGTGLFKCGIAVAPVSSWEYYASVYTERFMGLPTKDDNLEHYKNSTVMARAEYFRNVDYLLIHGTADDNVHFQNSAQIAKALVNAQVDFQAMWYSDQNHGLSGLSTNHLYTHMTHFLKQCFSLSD

[2] = target: T2, PREP (Homo sapiens, UniProt P48147); experiment: Affinity to PREP (IC50); assay type: biochemical; details: for binding to off-target PREP, in words: compared with reference (F) and (G)
T2 sequence (P48147 1-710): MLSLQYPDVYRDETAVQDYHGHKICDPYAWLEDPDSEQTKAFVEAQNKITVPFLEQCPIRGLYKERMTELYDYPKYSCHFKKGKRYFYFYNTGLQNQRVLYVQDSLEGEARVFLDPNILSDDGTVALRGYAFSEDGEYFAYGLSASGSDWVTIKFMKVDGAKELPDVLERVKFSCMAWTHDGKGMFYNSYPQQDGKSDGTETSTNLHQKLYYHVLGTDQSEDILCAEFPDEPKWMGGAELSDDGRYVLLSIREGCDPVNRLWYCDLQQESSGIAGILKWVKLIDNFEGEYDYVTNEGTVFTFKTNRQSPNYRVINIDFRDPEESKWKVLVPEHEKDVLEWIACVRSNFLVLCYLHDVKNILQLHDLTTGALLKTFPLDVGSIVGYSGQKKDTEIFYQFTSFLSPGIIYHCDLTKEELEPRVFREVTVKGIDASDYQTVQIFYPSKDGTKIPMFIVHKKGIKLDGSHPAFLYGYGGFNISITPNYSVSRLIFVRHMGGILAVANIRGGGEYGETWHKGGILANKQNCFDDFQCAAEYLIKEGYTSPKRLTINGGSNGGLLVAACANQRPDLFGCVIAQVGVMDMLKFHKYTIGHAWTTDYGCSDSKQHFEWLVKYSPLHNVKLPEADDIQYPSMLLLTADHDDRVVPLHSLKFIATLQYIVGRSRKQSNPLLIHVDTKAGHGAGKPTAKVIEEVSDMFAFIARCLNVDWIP
Description: Beneath Table 1 presents measured affinities to FAP and PREP for the inventive precursor compounds 1-4 and reference compound 5 as well as the original FAP inhibitor UAMC1110 as the current gold standard.

[3] = target: T1, FAP; details: background statement; cited from earlier work
[4] = target: DPP4 (Homo sapiens, UniProt P27487); details: background statement; cited from earlier work
Sequence of DPP4 (P27487 whole entry): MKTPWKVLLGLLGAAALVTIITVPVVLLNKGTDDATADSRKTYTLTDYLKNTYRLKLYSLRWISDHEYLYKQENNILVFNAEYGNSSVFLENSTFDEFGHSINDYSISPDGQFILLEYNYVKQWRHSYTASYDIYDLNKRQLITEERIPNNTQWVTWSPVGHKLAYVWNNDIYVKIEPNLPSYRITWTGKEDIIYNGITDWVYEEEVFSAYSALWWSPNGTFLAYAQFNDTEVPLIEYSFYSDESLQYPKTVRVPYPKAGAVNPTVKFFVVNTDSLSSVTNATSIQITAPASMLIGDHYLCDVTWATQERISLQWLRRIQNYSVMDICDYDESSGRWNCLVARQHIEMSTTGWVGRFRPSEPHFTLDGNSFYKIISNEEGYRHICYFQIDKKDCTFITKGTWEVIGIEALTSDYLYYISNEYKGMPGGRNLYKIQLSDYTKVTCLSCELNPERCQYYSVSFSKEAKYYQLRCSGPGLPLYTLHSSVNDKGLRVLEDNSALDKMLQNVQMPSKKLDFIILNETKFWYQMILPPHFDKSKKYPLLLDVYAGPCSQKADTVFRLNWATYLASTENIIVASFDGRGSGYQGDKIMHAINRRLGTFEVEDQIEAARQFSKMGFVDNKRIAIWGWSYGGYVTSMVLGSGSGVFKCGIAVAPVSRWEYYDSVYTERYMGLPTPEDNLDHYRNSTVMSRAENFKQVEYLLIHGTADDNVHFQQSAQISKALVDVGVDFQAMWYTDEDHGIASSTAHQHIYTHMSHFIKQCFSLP

With `CN(CC(=O)NCCCCOc1ccc2nccc(C(=O)NCC(=O)N3CC(F)(F)C[C@H]3C#N)c2c1)[C@H]1CCN(C(=O)CCCCC2(N(C)CC(=O)O)CN(CC(=O)O)CCN(CC(=O)O)C2)C1` [(E), 2,2′-(6-((carboxymethyl)(methyl)amino)-6-(5-((S)-3-((2-((4-((4-((2-((S)-2-cyano-4,4-difluoropyrrolidin-1-yl)-2-oxoethyl)carbamoyl)quinolin-6-yl)oxy)butyl)amino)-2-oxoethyl)(methyl)amino)pyrrolidin-1-yl)-5-oxopentyl)-1,4-diazepane-1,4-diyl)diacetic Acid] the IC50 [1] was 0.31 ± 0.02 nM, the “affinity to FAP, in words” value [1] was “higher affinity to FAP than reference compound (F) and the UAMC1110 gold standard (G)” and the “selectivity for FAP over PREP, in words” value [1] was “twice that of (G)”. The “S = PREP IC50/FAP IC50” value [1] was 8.4 × 10^3, the “SF = S relative to UAMC1110” value [1] was 2.0 and the IC50 [2] was 2600 ± 300 nM. For the same molecule, the “binding to off-target PREP, in words” value [2] was “reduced binding to off-target PREP compared to reference (F) and (G)”.
With `CN(CC(=O)O)C1(CCCCC(=O)N2CCN(CC(=O)NCCCCOc3ccc4nccc(C(=O)NCC(=O)N5CC(F)(F)C[C@H]5C#N)c4c3)CC2)CN(CC(=O)O)CCN(CC(=O)O)C1` [Compound (B), (S)-2,2′-(6-((carboxymethyl)(methyl)amino)-6-(5-(4-(2-((4-((4-((2-(2-cyano-4,4-difluoropyrrolidin-1-yl)-2-oxoethyl)carbamoyl)quinolin-6-yl)oxy)butyl)amino)-2-oxoethyl)piperazin-1-yl)-5-oxopentyl)-1,4-diazepane-1,4-diyl)diacetic Acid] the IC50 [1] was 0.27 ± 0.01 nM, the “affinity to FAP, in words” value [1] was “higher affinity to FAP than reference compound (F) and the UAMC1110 gold standard (G)” and the “S = PREP IC50/FAP IC50” value [1] was 5.6 × 10^3. For the same molecule, the “SF = S relative to UAMC1110” value [1] was 1.3, the IC50 [2] was 1500 ± 300 nM and the “binding to off-target PREP, in words” value [2] was “comparable to (F) and (G)”.
In the case of `N#C[C@@H]1CC(F)(F)CN1C(=O)CNC(=O)c1ccnc2ccccc12` [(G), (S)-N-(2-(2-cyano-4,4-difluoropyrrolidin-1-yl)-2-oxoethyl)quinoline-4-carboxamide], the FAP affinity [3] is given as “low nM range” and the DPP4 affinity [4] is given as “μM range”.
With `CN(CC(=O)O)C1(CCCCC(=O)NCCCCOc2ccc3nccc(C(=O)NCC(=O)N4CC(F)(F)C[C@H]4C#N)c3c2)CN(CC(=O)O)CCN(CC(=O)O)C1` [Compound (A), (S)-2,2′-(6-((carboxymethyl)(methyl)amino)-6-(5-((4-((4-((2-(2-cyano-4,4-difluoropyrrolidin-1-yl)-2-oxoethyl)carbamoyl)quinolin-6-yl)oxy)butyl)amino)-5-oxopentyl)-1,4-diazepane-1,4-diyl)diacetic Acid] the IC50 [1] was 0.27 ± 0.02 nM, the “affinity to FAP, in words” value [1] was “higher affinity to FAP than reference compound (F) and the UAMC1110 gold standard (G)” and the “selectivity for FAP over PREP, in words” value [1] was “six times that of (G)”. For the same molecule, the “S = PREP IC50/FAP IC50” value [1] was 23.7 × 10^3, the “SF = S relative to UAMC1110” value [1] was 5.6 and the IC50 [2] was 6400 ± 400 nM. The “binding to off-target PREP, in words” value [2] was “reduced binding to off-target PREP compared to reference (F) and (G)”.
With `CN(CC(=O)O)C1(CCCCC(=O)N[C@H]2CCN(CC(=O)NCCCCOc3ccc4nccc(C(=O)NCC(=O)N5CC(F)(F)C[C@H]5C#N)c4c3)C2)CN(CC(=O)O)CCN(CC(=O)O)C1` [(D), 2,2′-(6-((carboxymethyl)(methyl)amino)-6-(5-(((S)-1-(2-((4-((4-((2-((S)-2-cyano-4,4-difluoropyrrolidin-1-yl)-2-oxoethyl)carbamoyl)quinolin-6-yl)oxy)butyl)amino)-2-oxoethyl)pyrrolidin-3-yl)amino)-5-oxopentyl)-1,4-diazepane-1,4-diyl)diacetic Acid] the IC50 [1] was 0.28 ± 0.02 nM, the “affinity to FAP, in words” value [1] was “higher affinity to FAP than reference compound (F) and the UAMC1110 gold standard (G)” and the “selectivity for FAP over PREP, in words” value [1] was “three times higher than that of (G)”. For the same molecule, the “S = PREP IC50/FAP IC50” value [1] was 11.8 × 10^3, the “SF = S relative to UAMC1110” value [1] was 2.8 and the IC50 [2] was 3300 ± 200 nM. For the same molecule, the “binding to off-target PREP, in words” value [2] was “reduced binding to off-target PREP compared to reference (F) and (G)”.
